Experimental data reported in patent publication US20240190880A1 (THE REGENTS OF THE UNIVERSITY OF MICHIGAN, priority 2021, published 2024).

Molecular target: T1, ER (Homo sapiens, UniProt P03372)
T1 construct: host or cells: T47D and MCF7 human breast cancer cells
T1 sequence (P03372 1-595): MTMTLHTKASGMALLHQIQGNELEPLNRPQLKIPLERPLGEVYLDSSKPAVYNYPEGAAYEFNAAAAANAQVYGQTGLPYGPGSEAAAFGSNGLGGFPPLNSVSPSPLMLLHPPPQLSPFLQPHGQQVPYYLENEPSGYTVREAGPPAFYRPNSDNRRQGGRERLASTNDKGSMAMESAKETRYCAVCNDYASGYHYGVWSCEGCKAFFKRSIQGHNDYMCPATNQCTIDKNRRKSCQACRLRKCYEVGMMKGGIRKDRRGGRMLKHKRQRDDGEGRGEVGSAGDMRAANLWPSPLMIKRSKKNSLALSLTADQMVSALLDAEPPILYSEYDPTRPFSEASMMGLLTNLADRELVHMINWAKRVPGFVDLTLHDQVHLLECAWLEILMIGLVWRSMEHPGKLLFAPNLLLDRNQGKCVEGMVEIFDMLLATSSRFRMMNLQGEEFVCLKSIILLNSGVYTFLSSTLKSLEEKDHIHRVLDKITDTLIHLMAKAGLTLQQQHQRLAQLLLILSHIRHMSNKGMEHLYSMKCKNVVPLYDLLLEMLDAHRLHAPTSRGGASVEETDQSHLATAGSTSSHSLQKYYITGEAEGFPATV
Experiment: ER degradation activity, in-cell western blot analysis in T47D cells
Format: cell-based
Conditions: 16 hours, Table A does not say which cell line (T47D or MCF7), read-out: Potency (DC50)
Method in brief: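 In-cell western, T47D; compounds 16 h, 0.5% DMSO final; anti-rabbit-680/anti-mouse-800 secondaries, 1 h RT, dark; read on CLX imager. ER % vs untreated/DMSO wells (100%).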

DC50 [nM] | SMILES
> 100 | O=C1CCC(N2C(=O)c3cc4c(cc3C2=O)CN(CC2CCN(C(=O)C3(F)CCN(c5ccc([C@@H]6c7ccc(O)cc7CC[C@@H]6c6ccccc6)cc5)CC3)CC2)C4)C(=O)N1 (stereo partly drawn) [E 208, 2-(2,6-dioxopiperidin-3-yl)-6-((1-(4-fluoro-1-(4-((1R,2S)-6-hydroxy-2-phenyl-1,2,3,4-tetrahydronaphthalen-1-yl)phenyl)piperidine-4-carbonyl)piperidin-4-yl)methyl)-6,7-dihydropyrrolo[3,4-f]isoindole-1,3(2H,5H)-dione]
10 to 100 | O=C1CCC(N2C(=O)c3cc4c(cc3C2=O)CN(CC(=O)N2CCC3(CC2)CCN(c2ccc([C@H]5c6ccc(O)cc6CC[C@H]5c5ccc(F)cc5)cc2)CC3)C4)C(=O)N1 (stereo partly drawn) [E 213, 2-(2,6-dioxopiperidin-3-yl)-6-(2-(9-(4-((1S,2R)-2-(4-fluorophenyl)-6-hydroxy-1,2,3,4-tetrahydronaphthalen-1-yl)phenyl)-3,9-diazaspiro[5.5]undecan-3-yl)-2-oxoethyl)-6,7-dihydropyrrolo[3,4-f]isoindole-1,3(2H,5H)-dione]
> 100 | O=C1CCC(N2C(=O)c3cc4c(cc3C2=O)CN(CC2CCN(CC3CCN(c5ccc([C@@H]6c7ccc(O)cc7CC[C@@H]6c6ccccc6)cc5)CC3)CC2)C4)C(=O)N1 (stereo partly drawn) [E 217, 2-(2,6-dioxopiperidin-3-yl)-6-((1-((1-(4-((1R,2S)-6-hydroxy-2-phenyl-1,2,3,4-tetrahydronaphthalen-1-yl)phenyl)piperidin-4-yl)methyl)piperidin-4-yl)methyl)-6,7-dihydropyrrolo[3,4-f]isoindole-1,3(2H,5H)-dione]
> 100 | O=C1CCC(N2C(=O)c3cc4c(cc3C2=O)CN(CC(=O)N2CCC(Oc3ccc([C@@H]5c6ccc(O)cc6CC[C@@H]5c5ccccc5)cc3)CC2)C4)C(=O)N1 (stereo partly drawn) [E 219, 2-(2,6-dioxopiperidin-3-yl)-6-(2-(4-(4-((1R,2S)-6-hydroxy-2-phenyl-1,2,3,4-tetrahydronaphthalen-1-yl)phenoxy)piperidin-1-yl)-2-oxoethyl)-6,7-dihydropyrrolo[3,4-f]isoindole-1,3(2H,5H)-dione]
> 100 | O=C1CCC(N2C(=O)c3cc4c(cc3C2=O)CN(CC(=O)N2CCC3(CC2)CC(Oc2ccc([C@@H]5c6ccc(O)cc6CC[C@@H]5c5ccccc5)cc2)C3)C4)C(=O)N1 (stereo partly drawn) [E 220, 2-(2,6-dioxopiperidin-3-yl)-6-(2-(2-(4-((1R,2S)-6-hydroxy-2-phenyl-1,2,3,4-tetrahydronaphthalen-1-yl)phenoxy)-7-azaspiro[3.5]nonan-7-yl)-2-oxoethyl)-6,7-dihydropyrrolo[3,4-f]isoindole-1,3(2H,5H)-dione]

Second part, the compound before the results:

SMILES | DC50 [nM]
O=C1CCC(N2C(=O)c3cc4c(cc3C2=O)CN(CC2CCN(C(=O)C3(F)CN(c5ccc([C@@H]6c7ccc(O)cc7CC[C@@H]6c6ccccc6)cc5)C3)CC2)C4)C(=O)N1 (stereo partly drawn) [E 203, 2-(2,6-dioxopiperidin-3-yl)-6-((1-(3-fluoro-1-(4-((1R,2S)-6-hydroxy-2-phenyl-1,2,3,4-tetrahydronaphthalen-1-yl)phenyl)azetidine-3-carbonyl)piperidin-4-yl)methyl)-6,7-dihydropyrrolo[3,4-f]isoindole-1,3(2H,5H)-dione] | > 100
O=C1CCC(N2C(=O)c3cc4c(cc3C2=O)CN(CC2CCN(C(=O)C3CCN(c5ccc([C@@H]6c7ccc(O)cc7CC[C@@H]6c6ccccc6)cc5)CC3)CC2)C4)C(=O)N1 (stereo partly drawn) [E 204, 2-(2,6-dioxopiperidin-3-yl)-6-((1-(1-(4-((1R,2S)-6-hydroxy-2-phenyl-1,2,3,4-tetrahydronaphthalen-1-yl)phenyl)piperidine-4-carbonyl)piperidin-4-yl)methyl)-6,7-dihydropyrrolo[3,4-f]isoindole-1,3(2H,5H)-dione] | 10 to 100
O=C1CCC(N2C(=O)c3cc4c(cc3C2=O)CN(C(=O)C2CCN(CC3CCN(c5ccc([C@@H]6c7ccc(O)cc7CC[C@@H]6c6ccccc6)cc5)CC3)CC2)C4)C(=O)N1 (stereo partly drawn) [E 205, 2-(2,6-dioxopiperidin-3-yl)-6-(1-((1-(4-((1R,2S)-6-hydroxy-2-phenyl-1,2,3,4-tetrahydronaphthalen-1-yl)phenyl)piperidin-4-yl)methyl)piperidine-4-carbonyl)-6,7-dihydropyrrolo[3,4-f]isoindole-1,3(2H,5H)-dione] | > 100
O=C1CCC(N2C(=O)c3cc4c(cc3C2=O)CN(CC2(F)CN(C(=O)C3CCN(c5ccc([C@@H]6c7ccc(O)cc7CC[C@@H]6c6ccccc6)cc5)CC3)C2)C4)C(=O)N1 (stereo partly drawn) [E 207, 2-(2,6-dioxopiperidin-3-yl)-6-((3-fluoro-1-(1-(4-((1R,2S)-6-hydroxy-2-phenyl-1,2,3,4-tetrahydronaphthalen-1-yl)phenyl)piperidine-4-carbonyl)azetidin-3-yl)methyl)-6,7-dihydropyrrolo[3,4-f]isoindole-1,3(2H,5H)-dione] | > 100
C[C@@H]1Cc2c([nH]c3ccccc23)[C@@H](c2c(F)cc(N3CC(F)(C(=O)N4CCC(CN5Cc6cc7c(cc6C5)C(=O)N(C5CCC(=O)NC5=O)C7=O)CC4)C3)cc2F)N1CC(F)F (stereo partly drawn) [E 209, 6-((1-(1-(4-((1R,3R)-2-(2,2-difluoroethyl)-3-methyl-2,3,4,9-tetrahydro-1H-pyrido[3,4-b]indol-1-yl)-3,5-difluorophenyl)-3-fluoroazetidine-3-carbonyl)piperidin-4-yl)methyl)-2-(2,6-dioxopiperidin-3-yl)-6,7-dihydropyrrolo[3,4-f]isoindole-1,3(2H,5H)-dione] | 10 to 100
C[C@@H]1Cc2c([nH]c3ccccc23)[C@@H](c2c(F)cc(N3CC(F)(C(=O)N4CCC(F)(CN5Cc6cc7c(cc6C5)C(=O)N(C5CCC(=O)NC5=O)C7=O)CC4)C3)cc2F)N1CC(F)F (stereo partly drawn) [E 210, 6-((1-(1-(4-((1R,3R)-2-(2,2-difluoroethyl)-3-methyl-2,3,4,9-tetrahydro-1H-pyrido[3,4-b]indol-1-yl)-3,5-difluorophenyl)-3-fluoroazetidine-3-carbonyl)-4-fluoropiperidin-4-yl)methyl)-2-(2,6-dioxopiperidin-3-yl)-6,7-dihydropyrrolo[3,4-f]isoindole-1,3(2H,5H)-dione] | > 100
O=C1CCC(N2C(=O)c3cc4c(cc3C2=O)CN(CC2(F)CCN(CC3CCN(c5ccc([C@@H]6c7ccc(O)cc7CC[C@@H]6c6ccccc6)cc5)CC3)CC2)C4)C(=O)N1 (stereo partly drawn) [E 211, 2-(2,6-dioxopiperidin-3-yl)-6-((4-fluoro-1-((1-(4-((1R,2S)-6-hydroxy-2-phenyl-1,2,3,4-tetrahydronaphthalen-1-yl)phenyl)piperidin-4-yl)methyl)piperidin-4-yl)methyl)-6,7-dihydropyrrolo[3,4-f]isoindole-1,3(2H,5H)-dione] | > 100
O=C1CCC(N2C(=O)c3cc4c(cc3C2=O)CN(CC2(F)CN(CC3CCN(c5ccc([C@@H]6c7ccc(O)cc7CC[C@@H]6c6ccccc6)cc5)CC3)C2)C4)C(=O)N1 (stereo partly drawn) [E 212, 2-(2,6-dioxopiperidin-3-yl)-6-((3-fluoro-1-((1-(4-((1R,2S)-6-hydroxy-2-phenyl-1,2,3,4-tetrahydronaphthalen-1-yl)phenyl)piperidin-4-yl)methyl)azetidin-3-yl)methyl)-6,7-dihydropyrrolo[3,4-f]isoindole-1,3(2H,5H)-dione] | > 100
O=C1CCC(N2C(=O)c3cc4c(cc3C2=O)CN(CC(=O)N2CCC(n3cc(-c5ccc([C@@H]6c7ccc(O)cc7CC[C@@H]6c6ccccc6)cc5)cn3)CC2)C4)C(=O)N1 (stereo partly drawn) [E 214, 2-(2,6-dioxopiperidin-3-yl)-6-(2-(4-(4-(4-((1R,2S)-6-hydroxy-2-phenyl-1,2,3,4-tetrahydronaphthalen-1-yl)phenyl)-1H-pyrazol-1-yl)piperidin-1-yl)-2-oxoethyl)-6,7-dihydropyrrolo[3,4-f]isoindole-1,3(2H,5H)-dione] | > 100
O=C1CCC(N2C(=O)c3cc4c(cc3C2=O)CN(CC(=O)N2CC(n3cc(-c5ccc([C@@H]6c7ccc(O)cc7CC[C@@H]6c6ccccc6)cc5)cn3)C2)C4)C(=O)N1 (stereo partly drawn) [E 215, 2-(2,6-dioxopiperidin-3-yl)-6-(2-(3-(4-(4-((1R,2S)-6-hydroxy-2-phenyl-1,2,3,4-tetrahydronaphthalen-1-yl)phenyl)-1H-pyrazol-1-yl)azetidin-1-yl)-2-oxoethyl)-6,7-dihydropyrrolo[3,4-f]isoindole-1,3(2H,5H)-dione] | > 100
C[C@@H]1Cc2c([nH]c3ccccc23)[C@@H](c2c(F)cc(N3CC(C(=O)N4CCC(CN5Cc6cc7c(cc6C5)C(=O)N(C5CCC(=O)NC5=O)C7=O)CC4)C3)cc2F)N1CC(F)F (stereo partly drawn) [E 216, 6-((1-(1-(4-((1R,3R)-2-(2,2-difluoroethyl)-3-methyl-2,3,4,9-tetrahydro-1H-pyrido[3,4-b]indol-1-yl)-3,5-difluorophenyl)azetidine-3-carbonyl)piperidin-4-yl)methyl)-2-(2,6-dioxopiperidin-3-yl)-6,7-dihydropyrrolo[3,4-f]isoindole-1,3(2H,5H)-dione] | < 10
O=C1CCC(N2C(=O)c3cc4c(cc3C2=O)CN(CC2CN(CC3CCN(c5ccc([C@@H]6c7ccc(O)cc7CC[C@@H]6c6ccccc6)cc5)CC3)C2)C4)C(=O)N1 (stereo partly drawn) [E 218, 2-(2,6-dioxopiperidin-3-yl)-6-((1-((1-(4-((1R,2S)-6-hydroxy-2-phenyl-1,2,3,4-tetrahydronaphthalen-1-yl)phenyl)piperidin-4-yl)methyl)azetidin-3-yl)methyl)-6,7-dihydropyrrolo[3,4-f]isoindole-1,3(2H,5H)-dione] | > 100
